From publication PMC11352945, “Anticancer Activity of Benzo[a]phenoxazine Compounds Promoting Lysosomal Dysfunction” (Cells, 2024)
≈ marks a conversion by molar mass, not a printed value. Like-named read-outs stand apart in the source and are kept apart here.

How the values were obtained:
S. cerevisiae = settings: yeast S. cerevisiae, microdilution; cited from earlier work
MCF7 cells [1] = assay: Colony formation assay, MCF7; assay type: cell-based, human; settings: MCF7, IC50/2, 48 h treatment
Description: (§1) A colony formation assay was conducted on the RKO and MCF7 cell lines. In 6-well plates, 600 cells/mL and 800 cells/mL RKO and MCF7 cells, respectively, were seeded. Adherent cells were treated with the compounds C9, A36, and A42 at IC50/2 and IC50 concentrations or 0.1% DMSO (vehicle). As a control, untreated cells were used. Following a 48 h incubation period, the cells were twice rinsed with PBS 1× before being supplemented with new medium. After that, the cells were given 10–14 days to grow (new medium was added every 3 days). Following a PBS 1× rinse, the colonies were fixed for 30 min using 0.5% crystal violet and 6% glutaraldehyde. The ImageJ software (V1.53) was used to calculate the number of colonies. The percentage of colonies was determined and normalized for the untreated control.

HCT116 cells [2] = assay: Sulforhodamine B (SRB) cell viability assay, HCT116; assay type: cell-based; settings: Homo sapiens, HCT-116, CRC cell line, 48 h, read-out: IC50 (μM) ± SD, HCT116
Description: (§2) The cells were allowed to adhere overnight, from 12 h to 18 h, and then treated with increasing concentrations of each compound, C9, A36, and A42 (0.125 μM, 0.25 μM, 0.5 μM, 1 μM, 2.5 μM, and 5 μM), in their respective culture mediums for 48 h. In addition to a negative control that consisted only of cells and growth medium, a negative control containing the highest concentration of the solvent in which the compound was dissolved (DMSO 0.1%) was also used. The SRB assay was performed according to Marques et al.. The IC50 values were obtained using GraphPad Prism version 8.2.1 through the application of a sigmoidal dose–response nonlinear regression, after logarithmic transformation. The selectivity index was determined by dividing the IC50 value of the non-neoplastic BJ-5ta cell line by the IC50 value of the cancer cell lines (IC50 BJ-5ta/IC50 cancer cell line); furthermore, for the CRC model, a second selectivity index was also determined using the non-neoplastic NCM460 cell line (IC50 NCM460/IC50 CRC cell line). According to the results of the selectivity index, the cell line with the highest selectivity value for each of the models, CRC and breast, was selected for subsequent characterization.
(§3) Three CRC-derived cell lines, SW480 (KRAS^G12V), HCT116 (KRAS^G13D), and RKO (BRAF^V600E), harboring somatic mutations on KRAS or BRAF, and two breast-cancer-derived cell lines, MDA-MB-231 (basal like) and MCF7 (luminal A subtype), together with two non-neoplastic cell lines, NCM460 (normal colon mucosal epithelial cell line) and BJ-5ta (normal foreskin fibroblast cell line), were used to study the activity and selectivity of the three new benzo[a]phenoxazine compounds, C9, A36, and A42. All cell lines were treated with a range of drug concentrations (0.125 μM, 0.25 μM, 0.5 μM, 1 μM, 2.5 μM, and 5 μM) for 48 h, and the effect on cell viability was assessed using a sulforhodamine B assay (SRB) (Figure 2). […] In addition, the selectivity index was determined using the BJ-5ta cell line as a reference, as well as the NCM460 cell line for the CRC model (Table 1).

MDA-MB-231 cells [3] = assay: Sulforhodamine B (SRB) cell viability assay, MDA-MB-231; assay type: cell-based, human; settings: for IC50: Homo sapiens, MDA-MB-231, breast cancer cell line, 48 h, SRB, read-out: IC50 (μM) ± SD, MDA-MB-231; for Selectivity Index Cell Line IC50/BJ-5ta IC50: MDA-MB-231 versus BJ-5ta
Description: as §2
Three CRC-derived cell lines, SW480 (KRAS^G12V), HCT116 (KRAS^G13D), and RKO (BRAF^V600E), harboring somatic mutations on KRAS or BRAF, and two breast-cancer-derived cell lines, MDA-MB-231 (basal like) and MCF7 (luminal A subtype), together with two non-neoplastic cell lines, NCM460 (normal colon mucosal epithelial cell line) and BJ-5ta (normal foreskin fibroblast cell line), were used to study the activity and selectivity of the three new benzo[a]phenoxazine compounds, C9, A36, and A42. All cell lines were treated with a range of drug concentrations (0.125 μM, 0.25 μM, 0.5 μM, 1 μM, 2.5 μM, and 5 μM) for 48 h, and the effect on cell viability was assessed using a sulforhodamine B assay (SRB) (Figure 2). The results were used to determine the IC50 value of each compound for all the cell lines (Table 1). In addition, the selectivity index was determined using the BJ-5ta cell line as a reference, as well as the NCM460 cell line for the CRC model (Table 1).

SW480 cells [4] = assay: Sulforhodamine B (SRB) cell viability assay, SW480; assay type: cell-based; settings: Homo sapiens, CRC cell line, 48 h, read-out: IC50 (μM) ± SD, SW480
Description: as §2, §3

MCF7 cells [5] = assay: Cell proliferation by CFSE (flow cytometry), MCF7; assay type: cell-based, human
Description: (§4) RKO and MCF7 cell proliferation was evaluated through flow cytometry using the Carboxyfluorescein Diacetate Succinimidyl Ester (CFSE) probe. Confluent cells were collected, rinsed with PBS 1×, and incubated with 5 μM of CFSE for 15 min at 37 °C. Then, the cells were rinsed, resuspended in growth medium, and seeded in 12-well plates at 1 × 10^5 cells/mL. After 24 h, adherent cells were treated with compounds C9, A36, and A42 at IC50 and 2 × IC50 concentrations or 0.1% DMSO (vehicle). Untreated cells were used as controls. The cells were harvested at different time points of 0 h, 24 h, […], and 72 h. The cells were then analyzed in a flow cytometer and the CFSE median fluorescence intensity was quantified using the FITC-A channel. All median values were normalized to the time point 0 h.
(§5) The benzo[a]phenoxazines C9, A36, and A42 were tested for their capacity to decrease cell growth using an optimized flow cytometry Carboxyfluorescein Diacetate Succinimidyl Ester (CFSE) labeling procedure. This procedure enables the differentiation of successive rounds of cell division, since the CFSE probe is uniformly distributed among daughter cells during cell division. As a result, a decrease in green CFSE fluorescence was employed as an indicator of cell proliferation.

RKO cells [6] = assay: Sulforhodamine B (SRB) cell viability assay, RKO; assay type: cell-based; settings: Homo sapiens, CRC cell line, 48 h, read-out: IC50 (μM) ± SD, RKO
Description: as §2, §3

RKO cells [7] = assay: Cell proliferation by CFSE (flow cytometry), RKO; assay type: cell-based, human; settings: IC50 and 2 × IC50, 24 h, 48 h, 72 h
Description: as §4, §5

BJ-5ta cells [8] = assay: Sulforhodamine B (SRB) cell viability assay, BJ-5ta; assay type: cell-based; settings: Homo sapiens, non-neoplastic cell line, 48 h, read-out: IC50 (μM) ± SD, BJ-5ta
Description: as §2, §3

MCF7 cells [9] = assay: Sulforhodamine B (SRB) cell viability assay, MCF7; assay type: cell-based; settings: Homo sapiens, breast cancer cell line, 48 h, read-out: IC50 (μM) ± SD, MCF7
Description: as §2, §3

NCM460 cells [10] = assay: Sulforhodamine B (SRB) cell viability assay, NCM460; assay type: cell-based; settings: Homo sapiens, non-neoplastic cell line, 48 h, read-out: IC50 (μM) ± SD, NCM460
Description: as §2, §3

RKO cells [11] = assay: Colony formation assay, RKO; assay type: cell-based, human; settings: 10-14 days growth
Description: as §1

RKO cells [12] = assay: Annexin V/PI assay (flow cytometry), RKO; assay type: cell-based, human; settings: 2 × IC50 and 4 × IC50, 48 h
Description: (§6) RKO and MCF7 cells were seeded in 12-well plates at a density of 1 × 10^5 cells/mL. After 24 h, the cells were treated with C9, A36, and A42 at 2 × IC50 and 4 × IC50 concentrations or 0.1% DMSO (vehicle). Untreated cells were used as controls. After 48 h, floating and adherent cells were collected. The cells were resuspended in […] of binding buffer and treated for 15 min in the dark with 5 μL of Annexin V-FITC (Detection Kit-ab14085) and 5 μL of Propidium Iodide (50 μg/mL). The samples were subjected to flow cytometry analysis, PI fluorescence was detected using the ECD-A channel, and Annexin V fluorescence was detected using the FITC-A channel.
(§7) One of the main goals of clinical oncology is the development of compounds and treatments capable of selectively eliminating cancer cells. In this sense, we next evaluated the capability of the compounds to induce cell death in both cell lines. For this, we performed a flow cytometry analysis using annexin V-FITC and propidium iodide PI double staining. The conjugation of these two probes allowed for the discrimination of viable (negative for both), early apoptotic (annexin + and PI−), late apoptotic (annexin+ and PI+), and necrotic (annexin− and PI+) cells. […] Both flouting and attached cells were harvested and double stained.

MCF7 cells [13] = assay: Annexin V/PI assay (flow cytometry), MCF7; assay type: cell-based, human; settings: MCF7, 2 × IC50 and 4 × IC50, 48 h
Description: as §6, §7

HCT116 cells [14] = system: HCT116 cells; parameters: method as in PMID 36614056; settings: lead compound, CRC cell line; read-out: IC50 (μM) ± SD, HCT116; cited from earlier work
NCM460 cells [15] = system: NCM460 cells; parameters: method as in PMID 36614056; settings: lead compound, non-neoplastic cell line; read-out: IC50 (μM) ± SD, NCM460; cited from earlier work
SW480 cells [16] = system: SW480 cells; parameters: method as in PMID 36614056; settings: lead compound, CRC cell line; read-out: IC50 (μM) ± SD, SW480; cited from earlier work
MDA-MB-231 cells [17] = system: MDA-MB-231 cells; parameters: method as in PMID 36614056; settings: lead compound, breast cancer cell line; read-out: IC50 (μM) ± SD, MDA-MB-231; cited from earlier work
MCF7 cells [18] = system: MCF7 cells; parameters: method as in PMID 36614056; settings: lead compound, breast cancer cell line; read-out: IC50 (μM) ± SD, MCF7; cited from earlier work
RKO cells [19] = system: RKO cells; parameters: method as in PMID 36614056; settings: lead compound, CRC cell line; read-out: IC50 (μM) ± SD, RKO; cited from earlier work
BJ-5ta cells [20] = system: BJ-5ta cells; parameters: method as in PMID 36614056; settings: lead compound, non-neoplastic cell line; read-out: IC50 (μM) ± SD, BJ-5ta; cited from earlier work

SMILES | MIC (minimum inhibitory concentration) (S. cerevisiae) [µM] | Colonies detected (MCF7 cells [1]) | IC50 (HCT116 cells [2]) [µM] | IC50 (MDA-MB-231 cells [3]) [µM] | Selectivity Index Cell Line IC50/BJ-5ta IC50 (MDA-MB-231 cells [3]) | IC50 (SW480 cells [4]) [µM] | IC50 (RKO cells [6]) [µM] | IC50 (BJ-5ta cells [8]) [µM] | IC50 (MCF7 cells [9]) [µM] | IC50 (NCM460 cells [10]) [µM] | further results
CCCNc1cc2oc3cc(=[N+](CCC)CCC)ccc-3nc2c2ccccc12 [A36] | 1.56 | reduced number of small colonies | 1.28 ± 0.06 | 1.01 ± 0.09 | 2.41 | 0.72 ± 0.03 | 0.37 ± 0.03 | 2.44 ± 0.18 | 0.63 ± 0.05 | 2.06 ± 0.25 | CFSE median fluorescence normalized to T0 (MCF7 cells [5]; MCF7, 2 × IC50, 24 h (untreated 37%)): 62%; CFSE median fluorescence normalized to T0 (MCF7 cells [5]; MCF7, 2 × IC50, 48 h (untreated 21%)): 59%; CFSE median fluorescence normalized to T0 (MCF7 cells [5]; MCF7, 2 × IC50, 72 h (untreated 10%)): 47%; Effect on cell proliferation (CFSE) (MCF7 cells [5]; MCF7, IC50 and 2 × IC50, 24 h, 48 h, 72 h): highest effect; CFSE median fluorescence normalized to T0 (MCF7 cells [5]; MCF7, IC50 concentration, 24 h (untreated 37%)): 53%; CFSE median fluorescence normalized to T0 (MCF7 cells [5]; MCF7, IC50 concentration, 48 h (untreated 21%)): 50%; CFSE median fluorescence normalized to T0 (MCF7 cells [5]; MCF7, IC50 concentration, 72 h (untreated 10%)): 41%; Effect on cell proliferation (CFSE) (RKO cells [7]): highest effect
ClCCCN=c1cc2oc3c4c5c(cc3nc-2c2ccccc12)CCCN5CCC4 [A42] | 0.78 (≈ 0.326 µg/mL) | reduced number of small colonies | 1.13 ± 0.07 | 0.79 ± 0.03 | 3.26 | 0.78 ± 0.07 | 0.29 ± 0.01 | 2.58 ± 0.19 | 0.54 ± 0.02 | 2.59 ± 0.31 | Reduction of the colonies formed (RKO cells [11]; IC50, 48 h treatment): > 90%; Reduction of the colonies formed (RKO cells [11]; IC50/2, 48 h treatment): more than 75%; Cell death induction (Annexin V/PI) (RKO cells [12]): most powerful compounds; Cell death induction (Annexin V/PI) (MCF7 cells [13]): most powerful compounds
CCN=c1cc2oc3cc(NCCCC(=O)OCC)c4ccccc4c3nc-2cc1C [BaP1] | 25 (≈ 10.4 µg/mL) | – | – | – | 1.05 | – | – | – | – | – | IC50 (HCT116 cells [14]): 1.9 ± 0.09 µM; IC50 (NCM460 cells [15]): 12.8 ± 2.05 µM; IC50 (SW480 cells [16]): 5.6 ± 0.19 µM; IC50 (MDA-MB-231 cells [17]): 1.73 ± 0.03 µM; IC50 (MCF7 cells [18]): 0.92 ± 0.07 µM; IC50 (RKO cells [19]): 1.4 ± 0.08 µM; IC50 (BJ-5ta cells [20]): 1.83 ± 0.06 µM
